Tested on: acid secretion of the perfused rat stomach stimulated by pentagastrin
Assay: Investigation of the secretion-inhibiting effect on the perfused rat stomach
Format: in vivo, rat (CD rats, female)
Settings: for Maximum inhibition of acid secretion: N = 3, vs untreated control group, pentagastrin stimulation
Source text: The effect of the compounds according to the invention after intravenous administration on the acid secretion of the perfused rat stomach stimulated by pentagastrin in vivo is shown in the following Table 2.
The abdomen of anesthesized rats (CD rats, female, 200-250 g; 1.5 g/kg i.m. of urethane) was opened after tracheotomy by a median upper abdominal incision and a PVC catheter was fixed transorally in the esophagus and a further one via the pylorus in such a way that the ends of the tubes just projected into the stomach lumen. The catheter leading from the pylorus led outwards via a side opening in the right-hand abdominal wall.
After thorough irrigation (about 50-100 ml), a flow of warm physiological NaCl solution at 37° C. was continuously passed through the stomach (0.5 ml/min, pH 6.8-6.9; Brun-Unita I). The pH (pH meter 632, glass electrode EA 147; .phi.=5 mm, Metrohm) was determined in the effluent collected (25 ml measuring cylinder) at 15 min intervals in each case and the secreted HCl by titration with a freshly prepared 0.01 N NaOH solution to pH 7 (Dosimat 655 Metrohm).
The stimulation of gastric secretion was effected by continuous infusion of 1 μg/kg (=1.65 ml/h) i.v. of pentagastrin (left femoral vein) about 30 min after the end of the operation (i.e. after determination of 2 preliminary fractions). The substances to be tested were administered intravenously (left jugular vein) in a 1 ml/kg liquid volume 60 min after the start of continuous pentagastrin infusion.
The body temperature of the animals was kept at a constant 37.8°-38° C. by infrared irradiation and heating pads (automatic, stepless control via rectal temperature sensor).
The maximum decrease in acid secretion (15 min fractions) of each treated group compared to that of the untreated control group (=100%) was used as a measure of the secretion-inhibiting effect.

## Cc1c(CO)c2cnnc(OCc3ccc(F)cc3)c2n1Cc1ccccc1 [Example 1a, 1-Benzyl-7-(4-fluorobenzyloxy)-3-hydroxymethyl-2-methylpyrrolo[2,3-d]pyridazine]
Rattus norvegicus, iv, dose (interpolated) which causes a maximum inhibition of HCl secretion by 50%, read-out: approx. ED50
  ED50: ~1.1 µmol/kg
Dose 0.3 μmol/kg i.v.
  Maximum inhibition of acid secretion: 22%
Dose 1.0 μmol/kg i.v.
  Maximum inhibition of acid secretion: 52%
Dose 3.0 μmol/kg i.v.
  Maximum inhibition of acid secretion: 70%
Dose 10.0 μmol/kg i.v.
  Maximum inhibition of acid secretion: 94%
